The test system of one experiment is MCF7. As to the kind of experiment: Antiproliferative activity in human MCF7 cells assessed as cell growth inhibition measured after 24 hrs by MTT assay. The format is functional, cell-based. The following applies: MCF7, 24 h.
Experiment [1] concerns the target Mitogen-activated protein kinase 1 (Rattus norvegicus, UniProt P63086). As to the kind of experiment: Binding affinity to rat full-length ERK2 using FQRKTLQRRNLKGLNLNL-XXX-TGPLSPGPF peptide as substrate in presence of [gamma33P]ATP by scintillation counter analysis.
For experiment [2], the target named is T1, Mitogen-activated protein kinase 1 (Homo sapiens, UniProt P28482). As to the kind of experiment: Inhibition of ERK2 (unknown origin).
T1 sequence (P28482 whole entry): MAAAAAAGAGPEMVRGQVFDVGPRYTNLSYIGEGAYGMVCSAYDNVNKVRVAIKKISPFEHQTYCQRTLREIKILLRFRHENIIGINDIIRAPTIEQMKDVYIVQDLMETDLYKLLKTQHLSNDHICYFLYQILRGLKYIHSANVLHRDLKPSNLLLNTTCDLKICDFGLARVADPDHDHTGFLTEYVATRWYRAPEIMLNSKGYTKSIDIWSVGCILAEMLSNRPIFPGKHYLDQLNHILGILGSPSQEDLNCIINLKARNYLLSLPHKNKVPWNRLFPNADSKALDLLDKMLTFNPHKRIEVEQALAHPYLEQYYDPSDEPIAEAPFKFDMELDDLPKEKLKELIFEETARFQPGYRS
Experiment [3] has as its target T1, Mitogen-activated protein kinase 1. Kind of experiment: Binding affinity to ERK2 (unknown origin).
The nature of experiment [4]: Antitumor activity against patient-derived Pancreatic cancer cell xenografted in NMRI nu/nu mouse PAXF-2059 model assessed as cell growth inhibition. The format is functional, cell-based. To be noted: Homo sapiens.
Another experiment relates to Lung cancer cell line. Kind of experiment: Antitumor activity against patient-derived Lung cancer cell line xenografted in NMRI nu/nu mouse LXFA-983 model assessed as cell growth inhibition. The format is functional, cell-based. To be noted: Homo sapiens.
In experiment [5] the target is T2, Mitogen-activated protein kinase 3 (Homo sapiens, UniProt P27361). As to the kind of experiment: Inhibition of ERK1 (unknown origin).
T2 sequence (P27361 whole entry): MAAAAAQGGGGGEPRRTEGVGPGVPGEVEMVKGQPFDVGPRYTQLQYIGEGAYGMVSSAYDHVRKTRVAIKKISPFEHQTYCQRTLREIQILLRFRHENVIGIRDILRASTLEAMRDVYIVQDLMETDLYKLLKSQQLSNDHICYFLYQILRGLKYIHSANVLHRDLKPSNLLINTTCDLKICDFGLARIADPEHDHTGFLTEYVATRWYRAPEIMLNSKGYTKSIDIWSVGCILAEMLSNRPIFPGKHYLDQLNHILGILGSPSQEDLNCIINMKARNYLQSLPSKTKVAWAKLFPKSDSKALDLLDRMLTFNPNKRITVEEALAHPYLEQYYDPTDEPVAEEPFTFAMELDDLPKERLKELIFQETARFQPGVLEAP
Experiment [6] in a line: Antitumor activity against patient-derived Colorectal cancer cell xenografted in NMRI nu/nu mouse CXF-243 model assessed as cell growth inhibition. The format is functional, cell-based. The following applies: Homo sapiens.
A further experiment deals with UMUC3. As to the kind of experiment: Antiproliferative activity in human UMUC3 cells assessed as cell growth inhibition. It counts as functional, cell-based.
Experiment [7] in a line: Antiproliferative activity in mouse MB49 cells assessed as cell growth inhibition. It counts as functional, cell-based.
Experiment [8] has as its target T2, Mitogen-activated protein kinase 3. As to the kind of experiment: Binding affinity to ERK1 (unknown origin).
Experiment [9] shares this target. Kind of experiment: Binding affinity to ERK1 (unknown origin) measured after 20 mins in presence of [gamma33P]ATP by scintillation counter analysis.

The structures appear in SMILES notation.

Chain of Mitogen-activated protein kinase 1 (Rattus norvegicus, UniProt P63086) (P63086 whole entry): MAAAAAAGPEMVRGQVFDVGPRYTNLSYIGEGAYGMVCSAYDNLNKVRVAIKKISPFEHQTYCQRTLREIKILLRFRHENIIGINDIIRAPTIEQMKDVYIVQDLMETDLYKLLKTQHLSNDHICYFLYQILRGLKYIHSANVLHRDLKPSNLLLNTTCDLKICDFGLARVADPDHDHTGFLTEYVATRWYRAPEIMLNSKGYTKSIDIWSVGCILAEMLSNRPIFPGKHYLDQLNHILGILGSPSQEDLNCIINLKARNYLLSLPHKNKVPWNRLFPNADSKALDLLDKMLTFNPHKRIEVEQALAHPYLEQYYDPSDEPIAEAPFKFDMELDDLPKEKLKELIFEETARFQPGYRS

Regarding `Clc1cc(Cl)cc(C(Cn2ccnc2)OCc2nc3ccccc3s2)c1` (stereo unspecified), the half-maximal inhibitory concentration (IC50) in the experiment on MCF7 was found to be 5000 nM.
As for `O=[N+]([O-])c1cnc(Sc2nnc(O)n2-c2ccc3c(c2)OCCO3)s1`, the inhibitory constant (Ki) in experiment [1] is 2300 nM.
Take `COc1ccc2[nH]cc(/C=C3\C(=O)Nc4ccc(NC(=O)CCN5CCCCC5)cc43)c2c1`: 500 nM corresponded to half-maximal inhibition in experiment [2] (IC50).
For the molecule `N=C(N)NCCC[C@H]1CNC(=N)N1CCN(CCN1C[C@H](CCCNC(=N)N)N(CCCC2CCCCC2)C1=N)CCN1C[C@H](CCCNC(=N)N)N(CCc2cccc(Br)c2)C1=N`, it took 9900 nM to reach half-maximal inhibition in [2] (IC50). Also, the Kd in experiment [3] turned out to be 380 nM.
With `C=CC(=O)Nc1cc(C)ccc1Nc1nc(Nc2cc(OC)ncc2C)ncc1C(F)(F)F`, the IC50 in [4] was found to be 621 nM; in the experiment on Lung cancer cell line it was 800 nM; in [2] it was 10 nM; in [5], 10 nM; in experiment [6] it was 586 nM.
As to `Cc1cnc(NC2CCOCC2)nc1-n1cnc(C(=O)N[C@H](CN)c2cc(F)cc(Cl)c2)c1` [ASN007], the half-maximal inhibitory concentration (IC50) in experiment [2] and in experiment [5] was 2 nM each time.
With `O=C1Nc2cc3[nH]nc(-c4ccncc4)c3cc2CN1Cc1ccccc1` [KO-947], the concentration for half-maximal inhibition (IC50) in [2] and in experiment [5] was 10 nM throughout.
On to `N=C(N)NC(=N)NCCc1ccccc1` [PHENFORMIN], for which the IC50 with UMUC3 was 250000 nM; in experiment [7], 570000 nM.
As to `Cn1nccc1Nc1nccc(-c2cc3c(s2)C(C)(C)N(CCN2CCOCC2)C3=O)n1` [TEMUTERKIB], the IC50 in experiment [2] and in experiment [5] was 5 nM in each case. For the same molecule, the Ki in experiment [3] was 0.064 nM; in experiment [8], 0.65 nM.
As to `CC(C)Nc1cc(-c2c[nH]c(C(=O)N[C@H](CO)c3cccc(Cl)c3)c2)c(Cl)cn1` [ULIXERTINIB], in experiment [9], the inhibitory constant (Ki) is less than 0.3 nM.

The values above are taken from ChEMBL document CHEMBL5150019, “Targeting Extracellular Signal-Regulated Protein Kinase 1/2 (ERK1/2) in Cancer: An Update on Pharmacological Small-Molecule Inhibitors” (J Med Chem, 2022).
